Data reported in publication PMC9916762, “Impact of Hydrophobic Chains in Five-Coordinate Glucoconjugate Pt(II) Anticancer Agents” (International Journal of Molecular Sciences, 2023).

Columns and labels:
[1] = Octanol/water partition coefficient, shake-flask method; type: physicochemical; settings: n-octanol/water, UV-vis
Procedure: The partition coefficients in octanol/water (log Po/w) were measured using the shake-flask method, by calculating the equilibrium concentrations through UV spectra (Table 1).
Partition coefficients for the platinum complexes were determined in triplicate in an n-octanol/water system, with different ratios (1:1, 1:2, 2:1). Each complex was dissolved in n-octanol at the concentrations 16.7, 12.5, or 10 μM and subsequently, an appropriate volume of water was added. The mixtures were shaken mechanically for 1 h to ensure the distribution between the two solvent phases. The samples were then centrifuged (13,000 rpm, 10 min). Afterwards, the platinum concentration was determined in the octanol phases by UV–vis spectrophotometry, after collecting a calibration line for each complex. Results are expressed as the logarithm of the partition coefficient of octanol/water (log Po/w), which is the logarithm of the concentration of platinum in the n-octanol divided by its concentration in the aqueous layer.

[2] = system: human epidermoid carcinoma cells (A431); test: MTT cell viability assay, A431; type: cell-based; settings: for IC50: 48 h incubation, MTT; for SI (selectivity index): ratio IC50 HaCaT / IC50 A431
Text: (§1) The immortalized human keratinocytes (HaCaT) were from Innoprot.

[3] = system: immortalized murine fibroblasts (BALB/c-3T3); settings: read-out: IC50 BALB-c/3T3; 48 h incubation, MTT
Procedure: To evaluate their biological activity, the effects of the four complexes on cell viability were evaluated in eukaryotic cell models. For this purpose, experiments were performed on two cancer cell lines, i.e., human epidermoid carcinoma cells (A431) and murine fibroblast BALB/c-3T3 transformed with the SV40 virus (SVT2), and on two non-cancer cell lines, i.e., immortalized human keratinocytes (HaCaT) and immortalized murine fibroblasts (BALB/c-3T3). Cells were incubated with increasing concentrations of 1,Me-Me, 1,Oct-Me, 1,Me-Oct, and 1,Oct-Oct (from 0.1 to 50 μM). After 48 h of incubation, cytotoxicity was determined by MTT assay and cell survival was expressed as the percentage of viable cells in the presence of each complex compared with that of the untreated cells (Figure S19).
The immortalized human keratinocytes (HaCaT) were from Innoprot. Human The A431 epidermoid carcinoma, murine BALB/c-3T3, and SVT2 fibroblasts were from ATCC. Cells were cultured in Dulbecco’s modified Eagle’s medium (DMEM) (Sigma-Aldrich, St. Louis, MO, USA), supplemented with 10% foetal bovine serum (HyClone), 2 mM L-glutamine, and antibiotics, all from Sigma-Aldrich, under a 5% CO2-humidified atmosphere at 37 °C. To test the effects of the complexes on cell viability, cells were seeded at a density of 2.5 × 10^3 cells per well in 96-well plates. After 24 h, cells were incubated with increasing concentrations (from 0.1 to 50 μM) of the four complexes. After 48 h, cell viability was assessed by the MTT assay, as previously reported in [43]. Cell viability was expressed as the percentage of viable cells in the presence of the Pt complexes compared to the controls, represented by untreated cells and cells supplemented with identical volumes of DMSO. Each sample was tested in three independent analyses, each carried out in triplicate.

[4] = system: immortalized human keratinocytes (HaCaT); test: MTT cell viability assay, HaCaT; type: cell-based; settings: 48 h incubation
Text: as §1

[5] = system: murine fibroblast BALB/c-3T3 transformed with the SV40 virus (SVT2); test: MTT cell viability assay, SVT2; type: cell-based; settings: for IC50: 48 h incubation, MTT; for SI (selectivity index): ratio IC50 BALB-c/3T3 / IC50 SVT2
Text: as §1

A431 cells [6] = test: Western blot of pro-caspases 9 and 3, A431; type: cell-based, human; settings: A431, 2.3 μM, 48 h
Procedure: (§2) In particular, SVT2 and A431 were incubated for 48 h with 1-Me,Me and 1-Oct,Me, using the IC50 value concentrations. At the end of incubation, uptake and cell death mechanisms were evaluated. […] Finally, apoptosis was investigated by Western blot analyses using specific antibodies against pro-caspases 9 and 3.
The SVT2 were seeded on six-well plates at a density of 2.5 × 10^5 cells/well, whereas A431 was seeded at a density of 3 × 10^5 cells/well. After 24 h, cells were treated with 9.8 μM of 1-Me,Me or 2.3 μM 1-Oct,Me. After 48 h of incubation, Western blot analyses were performed by using pro-caspase 9 (Cell Signaling Technology, Danvers, MA, USA) and pro-caspase 3 (Abcam, Cambridge, MA, USA) antibodies, as reported by Del Giudice et al. Protein intensity levels were normalized using β-actin (Sigma-Aldrich, St. Louis, MO, USA). The chemiluminescence detection system was purchased from Bio-Rad (Hercules, CA, USA).

A431 cells [7] = test: Cellular Pt uptake by ICP-MS, A431; type: cell-based, human; settings: A431, 2.3 μM (IC50), 48 h, mean ± S.E.
Procedure: as §2
To study the uptake of the complexes, SVT2 and A431 were incubated for 48 h in the presence of 1-Me,Me and 1-Oct,Me, respectively, at their IC50 concentrations. At the end of incubation, Pt determination was performed by inductively coupled plasma mass spectrometry (ICP-MS, Aurora M90; Bruker, Ettlingen/Leipzig, Germany) in the “Normal Sensitivity” mode. Calibration curves for the quantification of Pt ranged from 0.1 to 100 μg/L and were constructed daily by the analysis of the standard solutions prepared immediately before analysis. All standards used for analysis were prepared in HNO3 solution (2%, v/v). The internal standards were ^89Y and ^115In in both the calibration curve and sample analyses. The linearity was acceptable with an R^2 value greater than 0.9996. The treatment of the cells involved a wet digestion: after centrifugation, cell samples were wet digested with 1 mL of ultrapure HNO3 (67–69%, v/v). The mixture was gently boiled over a water bath (90 °C) for 3 h until a clear solution was obtained. […]

Substance | Log Po/w [1] | IC50 [2] | SI (selectivity index) [2] | IC50 [3] | IC50 [4] | IC50 [5] | SI (selectivity index) [5] | pro-caspases 9 and 3 levels (A431 cells [6]) | Pt uptake (A431 cells [7])
Platinum(1+), (2,9-dimethyl-1,10-phenanthroline- N1,N10)(η2-ethene)octyl[1,3-dihydro-1-methyl-3-octyl-4-[1-[2,3,4,6-tetrakis-O-(acetyl)-β-D-glucopyranosyl]-1H-1,2,3-triazol-4-yl]-2H-imidazol-2-ylidene], 1,1,1-trifluoromethanesulfonate [1-Oct,Oct] | 0.80 | 5 ± 0.6 µM | 1.28 | 7.3 ± 0.7 µM | 6.4 ± 0.8 µM | 4.5 ± 1.3 µM | 1.62 |  | 
Platinum(1+), (2,9-dimethyl-1,10-phenanthroline- N1,N10)(η2-ethene)methyl[1,3-dihydro-1-methyl-3-octyl-4-[1-[2,3,4,6-tetrakis-O-(acetyl)-β-D-glucopyranosyl]-1H-1,2,3-triazol-4-yl]-2H-imidazol-2-ylidene], 1,1,1-trifluoromethanesulfonate [1-Me,Oct] | 0.74 | 7.3 ± 0.4 µM | 1.1 | 8.3 ± 0.4 µM | 8 ± 0.1 µM | 7.6 ± 1.1 µM | 1.09 |  | 
Platinum(1+), (2,9-dimethyl-1,10-phenanthroline- N1,N10)(η2-ethene)octyl[1,3-dihydro-1,3-dimethyl-4-[1-[2,3,4,6-tetrakis-O-(acetyl)-β-D-glucopyranosyl]-1H-1,2,3-triazol-4-yl]-2H-imidazol-2-ylidene], 1,1,1-trifluoromethanesulfonate [1-Oct,Me] | 1.14 | 2.3 ± 0.1 µM | 2.78 | 7.1 ± 0.1 µM | 6.4 ± 1 µM | 8.6 ± 0.6 µM | 0.83 | significant decrease in pro-caspases 9 and 3 levels | 14.3 ± 1.3 Pt ng/10^6 cells
